As a reminder, the Ki is a dissociation constant, usually derived from enzyme kinetics or from competition with a known ligand. The low end stands for higher affinity, the high end for lower affinity.

The species named for one assay is Homo sapiens. The assay can be described thus: Selectivity ratio of Ki for human cloned adenosine A1 receptor to Ki for human cloned adenosine A2A receptor.
The target of another assay is Adenosine receptor A2a (Homo sapiens, UniProt P29274). The experiment in a line: biochemical.
The next assay addresses T1, Adenosine receptor A1 (Homo sapiens, UniProt P30542).
T1 sequence (P30542 whole entry): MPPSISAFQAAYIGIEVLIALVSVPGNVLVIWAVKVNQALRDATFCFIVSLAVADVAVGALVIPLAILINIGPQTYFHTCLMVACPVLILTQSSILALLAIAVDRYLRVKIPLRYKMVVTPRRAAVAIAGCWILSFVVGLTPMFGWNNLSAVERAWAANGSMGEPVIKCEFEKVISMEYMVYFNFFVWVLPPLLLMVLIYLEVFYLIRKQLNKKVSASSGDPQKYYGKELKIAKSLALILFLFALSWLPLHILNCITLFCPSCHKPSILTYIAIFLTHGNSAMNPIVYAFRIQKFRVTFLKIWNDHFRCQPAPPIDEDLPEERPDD
The assay can be described thus: biochemical.

The nature of assay [1]: Selectivity for adenosine A1 receptor over adenosine A2 receptor.

Chain of Adenosine receptor A2a (P29274 whole entry): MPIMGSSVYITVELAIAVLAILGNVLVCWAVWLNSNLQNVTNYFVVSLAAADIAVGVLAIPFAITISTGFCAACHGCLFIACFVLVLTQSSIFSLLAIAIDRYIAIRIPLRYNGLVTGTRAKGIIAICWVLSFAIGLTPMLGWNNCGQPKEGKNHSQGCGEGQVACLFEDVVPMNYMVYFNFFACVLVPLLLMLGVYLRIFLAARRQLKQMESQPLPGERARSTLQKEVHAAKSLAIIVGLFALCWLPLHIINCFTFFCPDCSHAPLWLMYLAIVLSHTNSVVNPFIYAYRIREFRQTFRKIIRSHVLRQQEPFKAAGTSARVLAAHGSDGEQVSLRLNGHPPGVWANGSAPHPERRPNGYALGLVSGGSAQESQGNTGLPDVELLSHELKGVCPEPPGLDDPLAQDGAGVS
Description for Adenosine receptor A1: Displacement of [3H]DPCPX from human cloned adenosine A1 receptor expressed in CHOK1 cells by scintillation counting

On to `CCN(CC)CCOc1cccc(-c2nc3c([nH]2)c(=O)n(C)c(=O)n3C)c1`, for which the Ratio Ki in the assay filed under Homo sapiens was determined as 140. For the same compound, the inhibitory constant (Ki) amounted to 0.1 µM at Adenosine receptor A2a and 14 µM at Adenosine receptor A1.
As for `CCN(CC)CCOc1ccc(-c2nc3c([nH]2)c(=O)n(C)c(=O)n3C)cc1OC`, the Ratio Ki in the assay filed under Homo sapiens turned out to be 100. Moreover, the Ki was 1.1 µM on Adenosine receptor A2a and greater than 100 µM on Adenosine receptor A1.
Take `Cn1c(=O)c2[nH]c(-c3cccc(OCCN4CCCCC4)c3)nc2n(C)c1=O`: the inhibition constant Ki was 0.8 µM on Adenosine receptor A2a and 2.1 µM on Adenosine receptor A1.
The like results for `Cn1c(=O)c2[nH]c(-c3cccc(OCCN4CCCC4)c3)nc2n(C)c1=O` were, in that order, 0.4 µM and 1.6 µM.
As for `Cn1c(=O)c2[nH]c(-c3cccc(OCCN4CCOCC4)c3)nc2n(C)c1=O`, the Ki is 1.4 µM at Adenosine receptor A2a and 2.1 µM on Adenosine receptor A1.
Take `COc1cc(-c2nc3c([nH]2)c(=O)n(C)c(=O)n3C)ccc1OCCN1CCCC1`: the Ratio Ki in the assay filed under Homo sapiens was determined as 10. The figures for the inhibitory constant (Ki) at Adenosine receptor A2a and on Adenosine receptor A1 were 1 µM and 11.2 µM, respectively.
The like results for `COc1cc(-c2nc3c([nH]2)c(=O)n(C)c(=O)n3C)ccc1OCCN1CCCCC1` were, in that order, 100, 0.7 µM and greater than 100 µM.
Turning to `COc1ccc(-c2nc3c([nH]2)c(=O)n(C)c(=O)n3C)cc1OCCN1CCOCC1`, the values for the Ki on Adenosine receptor A2a and on Adenosine receptor A1 were 0.1 µM and greater than 100 µM, respectively.
With `COc1ccc(-c2nc3c([nH]2)c(=O)n(C)c(=O)n3C)cc1OCCN(C)C`, in the assay listed under Homo sapiens, the Ratio Ki is 30. Moreover, the Ki was determined as 0.4 µM on Adenosine receptor A2a and 13.5 µM on Adenosine receptor A1.
Consider `COc1ccc(-c2nc3c([nH]2)c(=O)n(C)c(=O)n3C)cc1OCCN1CCCCC1`, for which, in the assay filed under Homo sapiens, the Ratio Ki was determined as 38. Besides, the Ki at Adenosine receptor A2a is 2.7 µM; on Adenosine receptor A1, greater than 100 µM.
As for `CCCn1c(=O)c2[nH]c(-c3ccc(OC)cc3O)nc2n(CCC)c1=O`, the fold change (FC) in assay [1] was 90.
With `CCN(CC)CCOc1cc(-c2nc3c([nH]2)c(=O)n(C)c(=O)n3C)ccc1OC`, the Ratio Ki in the assay filed under Homo sapiens was determined as 70. In addition, the results for the inhibition constant (Ki) at Adenosine receptor A2a and at Adenosine receptor A1 were 0.6 µM and 43 µM, respectively.
Regarding `COc1cc(-c2nc3c([nH]2)c(=O)n(C)c(=O)n3C)ccc1OCCN1CCOCC1`, the Ki at Adenosine receptor A2a is 100 µM; at Adenosine receptor A1, greater than 100 µM.
The like results for `CN(C)CCOc1cccc(-c2nc3c([nH]2)c(=O)n(C)c(=O)n3C)c1` were, in that order, 0.4 µM and 0.8 µM.
Regarding `COc1cc(-c2nc3c([nH]2)c(=O)n(C)c(=O)n3C)ccc1OCCN(C)C`, in the assay filed under Homo sapiens, the Ratio Ki was 100. Moreover, the Ki is 0.6 µM on Adenosine receptor A2a and greater than 100 µM on Adenosine receptor A1.

For the origin of these results see ChEMBL document CHEMBL1137738, “Synthesis of a series of 8-(substituted-phenyl)xanthines and a study on the effects of substitution pattern of phenyl substituents on affinity for adenosine A(1) and A(2A) receptors” (Eur J Med Chem, 2009).
